The values below come from ChEMBL document CHEMBL5370659 (J Med Chem, 2023).

Data set [1] is described as follows: Permeability across apical to basal side in MDCK-MDR1 cells at pH 6.5/7.4 measured at 5 uM by LC-MS/MS analysis. The class given is ADME, cell-based, Canis lupus familiaris. As to conditions: dog, MDCK-MDR1, pH 6.5.
Data set [2] is described as follows: Brain homogenate binding in rat. The class given is ADME, tissue-based.
A short description of data set [3]: Plasma protein binding in rat. The class given is ADME, cell-free. To be noted: read-out: PPB (converted).
Data set [4] can be described thus: Metabolic stability in human hepatocytes assessed as intrinsic clearance. Type of data set: ADME, cell-based, Hepatocyte. As to conditions: read-out: CLH.
Data set [5] in a line: Metabolic stability in human hepatocytes assessed as half life. Type of data set: ADME, cell-based, Hepatocyte.
Data set [6] in a line: Brain homogenate binding in mouse. Type of data set: ADME, tissue-based.
Data set [7] in a line: Apparent permeability across basal to apical side in human Caco-2 cells at pH 6.5/7.4 measured at 5 uM by LC-MS/MS analysis. The class given is ADME, cell-based. As to conditions: Caco-2, pH 6.5. In general terms: Caco-2 monolayers are a common model of the intestinal barrier.
Data set [8] in a line: Metabolic stability in rat hepatocytes assessed as half life. Type of data set: ADME, cell-based, Hepatocyte.
A short description of data set [9]: Apparent permeability across apical to basal side in human Caco-2 cells at pH 6.5/7.4 measured at 5 uM by LC-MS/MS analysis. Type of data set: ADME, cell-based. To be noted: Caco-2, pH 6.5.
Data set [10] in a line: Plasma protein binding in human. Type of data set: ADME, cell-free. As to conditions: read-out: PPB (converted).
In data set [11] the target is T1, Tryptophan 5-hydroxylase 1 (Homo sapiens, UniProt P17752).
T1 sequence (P17752 whole entry): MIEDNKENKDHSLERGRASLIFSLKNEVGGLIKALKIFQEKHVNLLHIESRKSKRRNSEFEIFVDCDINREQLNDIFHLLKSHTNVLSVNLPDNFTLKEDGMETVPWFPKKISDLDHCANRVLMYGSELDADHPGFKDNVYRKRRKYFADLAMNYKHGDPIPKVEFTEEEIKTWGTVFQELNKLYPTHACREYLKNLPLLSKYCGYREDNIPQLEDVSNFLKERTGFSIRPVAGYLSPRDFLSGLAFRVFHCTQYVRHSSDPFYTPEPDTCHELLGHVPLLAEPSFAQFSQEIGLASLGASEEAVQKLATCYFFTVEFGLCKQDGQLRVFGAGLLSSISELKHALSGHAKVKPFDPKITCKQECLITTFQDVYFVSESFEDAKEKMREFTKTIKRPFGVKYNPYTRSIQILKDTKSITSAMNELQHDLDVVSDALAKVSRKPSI
Description: Inhibition of recombinant MBP-tagged full length human THP1 using L-Trp as substrate assessed as formation of 5-HTP by measuring fluorescent property.

The target of data set [12] is T2, Tryptophan 5-hydroxylase 2 (Homo sapiens, UniProt Q8IWU9).
T2 sequence (Q8IWU9 whole entry): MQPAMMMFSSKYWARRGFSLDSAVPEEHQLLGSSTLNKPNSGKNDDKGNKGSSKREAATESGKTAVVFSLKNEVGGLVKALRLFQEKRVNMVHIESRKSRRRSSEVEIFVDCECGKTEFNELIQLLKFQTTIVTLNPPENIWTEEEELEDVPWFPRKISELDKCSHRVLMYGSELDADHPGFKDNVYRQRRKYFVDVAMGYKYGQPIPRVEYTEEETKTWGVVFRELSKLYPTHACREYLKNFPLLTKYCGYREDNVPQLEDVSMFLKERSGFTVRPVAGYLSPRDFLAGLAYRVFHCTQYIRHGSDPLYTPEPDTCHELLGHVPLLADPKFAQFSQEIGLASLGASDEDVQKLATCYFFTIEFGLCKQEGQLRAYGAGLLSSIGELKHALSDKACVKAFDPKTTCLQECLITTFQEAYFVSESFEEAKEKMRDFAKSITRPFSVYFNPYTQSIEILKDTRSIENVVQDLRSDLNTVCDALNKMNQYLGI
Description: Inhibition of recombinant MBP-tagged full length human THP2 using L-Trp as substrate assessed as formation of 5-HTP by measuring fluorescent property.

Data set [13] in a line: Metabolic stability in rat hepatocytes assessed as intrinsic clearance. The class given is ADME, cell-based, Hepatocyte. As to conditions: read-out: CLH.
Data set [14] in a line: Aqueous solubility of the compound in pH 7.4 PBS buffer by HPLC-UV analysis. Type of data set: physicochemical.
The nature of data set [15]: Permeability across basal to apical side in MDCK-MDR1 cells at pH 6.5/7.4 measured at 5 uM by LC-MS/MS analysis. Type of data set: ADME, cell-based, Canis lupus familiaris. As to conditions: dog, MDCK-MDR1, pH 6.5.

Converted amounts (≈) assume the structure as drawn.

As a reminder, the Papp A→B is how fast a substance crosses the layer from the apical side. The term half-life denotes how long it takes for the measured level to halve. The Papp B→A is the apparent permeability from the basolateral to the apical side of a cell layer. For orientation: IC50 means the concentration at which inhibition is half-maximal. What is called solubility is the dissolved amount per volume that the medium holds. The low end stands for little dissolved substance, the high end for much dissolved substance. In the case of `CCn1c(=O)[nH]c(=O)c2c1nc(Cc1cn3cc(Cl)sc3n1)n2CC1COC1`, the Papp A→B at 5 µM is less than 0.64 ×10⁻⁶ cm/s in data set [1] and 0.26 ×10⁻⁶ cm/s in data set [9]. Also, the Activity in data set [2] and in [6] was less than 1% in each case. Also, the fraction unbound in [3] is 0.5; in data set [10] it was 0.38. Further, the CLint scaled in [4] is less than 8.6 mL/min/kg; in data set [13], less than 17 mL/min/kg. Besides, the half-life in data set [5] and in data set [8] was greater than 2.42 h in each case. For the same molecule, the Papp B→A at 5 µM in data set [7] came to 29 ×10⁻⁶ cm/s; in [15], 30 ×10⁻⁶ cm/s. Besides, the IC50 in [11] is 118 nM; in [12] it was 37 nM. In data set [14], this molecule showed a solubility of 200 µM (≈ 84.2 µg/mL).
In the case of `CCn1c(=O)[nH]c(=O)c2c1nc(Cc1cn3cc(C)sc3n1)n2CC1CC1`, the Papp A→B at 5 µM in [1] came out at 0.45 ×10⁻⁶ cm/s; in data set [9] it was 1.29 ×10⁻⁶ cm/s. Further, the fraction unbound in [3] was 0.17; in data set [10], 0.06. Moreover, the CLint scaled in [4] was found to be 19 mL/min/kg. The half-life in data set [5] stood at 1.12 h. For the same molecule, the Papp B→A at 5 µM in data set [7] is 57 ×10⁻⁶ cm/s; in data set [15] it was 54 ×10⁻⁶ cm/s. In addition, the t1/2 in data set [8] turned out to be 0.7 h. The IC50 in [11] worked out at 100 nM; in data set [12] it was 23 nM. The solubility in [14] came to 173 µM (≈ 66.5 µg/mL).
